Data as given in ChEMBL document CHEMBL1275411, “Efficacy of SPK-843, a novel polyene antifungal, in comparison with amphotericin B, liposomal amphotericin B, and micafungin against murine pulmonary aspergillosis” (Antimicrob Agents Chemother, 2008).
Values after ≈ are worked out from the molar mass of the structure shown. Each block holds one molecule with its values, some of them ahead of it. Active and inactive are the calls of the source. No cut-off for these calls is given here. *1 amine or outer side, *2 acyl side, *3 side chain or, on linkers, in order; H or OH if unused. Where a SMILES comes first, the peptide text is derived from it. Bridges are numbered along the chain shown (N, C = ends). [ ]: non-standard residue; d: D form. The star is where a group is joined. hTyr(3S-OH,4S-OH,3'-OSO3H) = N[C@H](C(=O)O)[C@H](O)[C@@H](O)c1ccc(O)c(OS(=O)(=O)O)c1; Orn(4R-OH,5R-OH) = O=C([C@H](C[C@@H](O)[C@@H](O)N[*:3])N[*:1])[*:2]; Pro(3S-OH,4S-Me) = C[C@H]1CN[C@H](C(=O)O)[C@H]1O; X1 = CCCCCOc1ccc(-c2cc(-c3ccc(C(=O)*)cc3)no2)cc1; Gln(3R-OH) = NC(=O)C[C@@H](O)[C@H](N)C(=O)O; Hyp = O=C(O)[C@@H]1C[C@@H](O)CN1

Legend:
Aspergillus fumigatus [1] = test: Antimicrobial activity against Aspergillus fumigatus MF-13 by broth microdilution method; format: functional
Aspergillus flavus [2] = test: Antimicrobial activity against Aspergillus flavus conidia infected in iv dosed DBA/2N mouse assessed as increased survival rate measured for 5 days; format: functional, organism-based
Aspergillus flavus [3] = test: Antimicrobial activity against Aspergillus flavus conidia infected in DBA/2N mouse assessed as increased survival rate at =>1 mg/kg, iv qd for 5 days; format: functional, organism-based
Aspergillus fumigatus [4] = test: Antimicrobial activity against Aspergillus fumigatus infected in DBA/2N mouse at >1 mg/kg, iv qd for 5 days relative to amphotericin B; format: functional, organism-based
Mus musculus [5] = test: Toxicity in DBA/2N mouse infected with Aspergillus at >1.0 mg/kg, iv qd for 5 days relative to amphotericin B; format: organism-based; details: in vivo, 120 h
Aspergillus fumigatus [6] = test: Antimicrobial activity against Aspergillus fumigatus conidia infected in DBA/2N mouse assessed as increased survival rate at =>[…] mg/kg, iv qd for 5 days; format: functional, organism-based
Aspergillus fumigatus [7] = test: Antimicrobial activity against Aspergillus fumigatus conidia infected in DBA/2N mouse assessed as increased survival rate at 0.25 to 1 mg/kg, iv qd for 5 days; format: functional, organism-based
Aspergillus flavus [8] = test: Antimicrobial activity against Aspergillus flavus conidia infected in DBA/2N mouse assessed as increased survival rate at 4 mg/kg, iv qd for 5 days relative to amphotericin B/L-amphotericin B; format: functional, organism-based; design: dose 4 mg/kg
Aspergillus niger [9] = test: Antimicrobial activity against Aspergillus niger TIMM 2814 by broth microdilution method; format: functional
Aspergillus flavus [10] = test: Antimicrobial activity against Aspergillus flavus TIMM 0057 by broth microdilution method; format: functional
Aspergillus niger [11] = test: Antimicrobial activity against Aspergillus niger conidia infected in iv dosed DBA/2N mouse assessed as increased survival rate measured for 5 days; format: functional, organism-based
Aspergillus flavus [12] = test: Antimicrobial activity against Aspergillus flavus infected in DBA/2N mouse at >1 mg/kg, iv qd for 5 days relative to amphotericin B; format: functional, organism-based
Aspergillus niger [13] = test: Antimicrobial activity against Aspergillus niger conidia infected in DBA/2N mouse assessed as increased survival rate at 2 mg/kg, iv qd for 5 days relative to amphotericin B/L-amphotericin B; format: functional, organism-based; design: dose 2 mg/kg
Aspergillus [14] = test: Antimicrobial activity against Aspergillus infected in DBA/2N mouse assessed as increased survival rate at >1 mg/kg, iv qd for 5 days relative to amphotericin B; format: functional, organism-based
Aspergillus [15] = test: Antimicrobial activity against Aspergillus infected in DBA/2N mouse at 1 mg/kg, iv qd for 5 days; format: functional, organism-based; design: dose 1 mg/kg
Aspergillus niger [16] = test: Antimicrobial activity against Aspergillus niger conidia infected in DBA/2N mouse assessed as increased survival rate at =>0.25 mg/kg, iv qd for 5 days; format: functional, organism-based
Mus musculus [17] = test: Toxicity in DBA/2N mouse infected with Aspergillus at =<1.0 mg/kg, iv qd after 5 days; format: organism-based; details: in vivo, 120 h
Aspergillus niger [18] = test: Antimicrobial activity against Aspergillus niger infected in DBA/2N mouse at >1 mg/kg, iv qd for 5 days relative to amphotericin B; format: functional, organism-based
Mus musculus [19] = test: Toxicity in Aspergillosis infected DBA/2N mouse assessed as histopathological lesions in kidney at 1 mg/kg, iv qd after 5 days; format: organism-based; design: dose 1 mg/kg, route intravenous; details: in vivo, 120 h
Aspergillus fumigatus [20] = test: Antimicrobial activity against Aspergillus fumigatus conidia infected in DBA/2N mouse assessed as increased survival rate at 2 to 4 mg/kg, iv qd for 5 days; format: functional, organism-based
Mus musculus [21] = test: Toxicity in Aspergillosis infected DBA/2N mouse assessed as histopathological lesions in kidney at 4 mg/kg, iv qd after 5 days; format: organism-based; design: dose 4 mg/kg, route intravenous; details: in vivo, 120 h
Mus musculus [22] = test: Toxicity in Aspergillosis infected DBA/2N mouse assessed as kidney tubular cell necrosis and cast formation at 1 mg/kg, iv qd after 5 days; format: organism-based; design: dose 1 mg/kg, route intravenous; details: in vivo, 120 h

MIC (Aspergillus fumigatus [1]): 0.0156 µg/mL (≈ 0.0123 µM)
SMILES: CCCCCOc1ccc(-c2cc(-c3ccc(C(=O)N[C@H]4C[C@@H](O)[C@@H](O)NC(=O)[C@@H]5[C@@H](O)[C@@H](C)CN5C(=O)[C@H]([C@H](O)CC(N)=O)NC(=O)[C@H]([C@H](O)[C@@H](O)c5ccc(O)c(OS(=O)(=O)O)c5)NC(=O)[C@@H]5C[C@@H](O)CN5C(=O)[C@H]([C@@H](C)O)NC4=O)cc3)no2)cc1 [MICAFUNGIN] (X1-[Orn(4R-OH,5R-OH)]T[Hyp][hTyr(3S-OH,4S-OH,3'-OSO3H)][Gln(3R-OH)][Pro(3S-OH,4S-Me)]; lactam 1-C)

SMILES: CNc1ccc(C(=O)CC(O)CC[C@H](C)C2OC(=O)C[C@H](O)CC(=O)C[C@H](O)C[C@H](O)C[C@H](O)C[C@H](O)C[C@]3(O)C[C@H](O)[C@@H](C(=O)NCCN(C)C)[C@H](C[C@@H](O[C@@H]4O[C@H](C)[C@@H](O)[C@H](NC(=O)CN(C)C)[C@@H]4O)/C=C/C=C/C=C/C=C/C=C/C=C/C=C/C2C)O3)cc1.O=C1O[C@H]([C@@H](O)CO)C(O)=C1O.O=C1O[C@H]([C@@H](O)CO)C(O)=C1O (some centres not stated)
Activity (Aspergillus flavus [2]): Dose-dependent effect
Activity (Aspergillus flavus [3]): Active
Activity (Aspergillus fumigatus [4]): Active
Activity (Mus musculus [5]): Non-toxic
Activity (Aspergillus fumigatus [6]): Active
Activity (Aspergillus fumigatus [7]): Active
Activity (Aspergillus flavus [8]): Active
MIC (Aspergillus niger [9]): 0.0625 µg/mL
MIC (Aspergillus flavus [10]): 0.25 µg/mL
Activity (Aspergillus niger [11]): Dose-dependent effect
Activity (Aspergillus flavus [12]): Active
Activity (Aspergillus niger [13]): Active
Activity (Aspergillus [14]): Active
Activity (Aspergillus [15]): inactive
Activity (Aspergillus niger [16]): Active
Activity (Mus musculus [17]): Non-toxic
MIC (Aspergillus fumigatus [1]): 0.5 µg/mL
Activity (Aspergillus niger [18]): Active

SMILES: C[C@@H]1[C@H](O)[C@@H](C)/C=C/C=C/C=C/C=C/C=C/C=C/C=C/[C@H](O[C@@H]2O[C@H](C)[C@@H](O)[C@H](N)[C@@H]2O)C[C@@H]2O[C@](O)(C[C@@H](O)C[C@@H](O)[C@H](O)CC[C@@H](O)C[C@@H](O)CC(=O)O[C@H]1C)C[C@H](O)[C@H]2C(=O)O [AMPHOTERICIN B]
Activity (Mus musculus [19]): Non-toxic
Activity (Aspergillus fumigatus [6]): Active
MIC (Aspergillus niger [9]): 0.25 µg/mL (≈ 0.271 µM)
MIC (Aspergillus flavus [10]): 0.5 µg/mL (≈ 0.541 µM)
Activity (Aspergillus fumigatus [20]): Active
Activity (Mus musculus [21]): Non-toxic
Activity (Mus musculus [22]): Toxic
MIC (Aspergillus fumigatus [1]): 0.25 µg/mL (≈ 0.271 µM)
